Measurements: patent publication US20240066038A1, “WNT MODULATORS TO TREAT CENTRAL NERVOUS SYSTEM INJURIES” (MAYO FOUNDATION FOR MEDICAL EDUCATION AND RESEARCH, priority 2021, published 2024)

Key:
Wnt/β-catenin signaling [1] = experiment: Axin2 expression by qPCR in hCMEC/D3 cerebral microvascular endothelial cells; format: cell-based, human; conditions: serum free medium, 24 h
Protocol: The expression level of Axin2, a specific target of Wnt/β-catenin signaling, was measured by qPCR. The results represented in the histograms are shown as the means±SE and are the average of 3 independent experiments. One-way ANOVA with post hoc Tukey-Kramer honest significant difference test. **, p<0.01.
Studies in past ten years have established that the Wnt/β-catenin pathway is a key pathway required not only for BBB formation but also for BBB integrity and function. Moreover, BBB breakdown following middle cerebral artery occlusion can be potently rescued in mice in which Wnt/β-catenin is specifically activated in brain endothelial cells. On the other hand, dysregulation of Wnt/β-catenin may limit remyelination of white matter lesions (WMLs) and render the BBB leaky.

Wnt/β-catenin signaling [2] = experiment: Total cellular β-catenin level by Western blotting in neuronal N2a cells; format: cell-based; conditions: 24 h, Western blotting normalized to actin
Protocol: (A) Compound 1039 activates Wnt/β-catenin signaling in HEK293 cells. HEK293 cells were transfected with Super8XTOPFlash and 8-galactosidase vectors along with Wnt3A or control vector. After 24 h incubation, cells were treated with 1039 at the indicated concentrations for 24 h. The luciferase activity was then measured and normalized to the activity of the 8-galactosidase. All the values are the average of triplicate determinations with the SD values indicated by error bars. This experiment is a representative of 3 such experiments performed with similar data. (B, C) N2a cells were treated with Compound 1039 at the indicated concentrations for 24 h. (B) The levels of total cellular β-catenin were examined by Western blotting. (C) The intensity of the β-catenin bands was quantified and normalized to the corresponding signal for actin. The results represented in the histograms are shown as the mean±SD and are the average of 3 independent experiments.
Wnt/β-catenin signaling plays a critical role in neuronal survival, neurogenesis, synaptogenesis, neuronal plasticity and synaptic plasticity.

Compound	activation of Wnt/β-catenin signaling (Axin2 expression, qPCR) (Wnt/β-catenin signaling [1])	β-catenin level (Wnt/β-catenin signaling [2])
Nc1ccccc1NC(=O)c1ccc(C(=O)NCC2CCN2C2CCCC2)cn1 (centres unmarked) [Compound 1015]	able to activate Wnt/β-catenin signaling	
Nc1ccccc1NC(=O)c1ccc(C(=O)NCC2CCCN2CCc2ccccc2)cn1 (centres unmarked) [Compound 1039]		enhances β-catenin level in a dose dependent manner
